Tested on: Vaccinia virus
Assay: Antiviral activity against Vaccinia virus infected in rabbit primary kidney cells assessed as inhibition of viral cytopathogenicity after 3 days
Format: functional, Orthopoxvirus vaccinia

Nc1ncnc2c1ncn2C[C@@H](O)CO
MID: >400 µg/mL

OC[C@@H](O)Cn1cnc2c(O)ncnc21
MID: >400 µg/mL

O=c1ccn(C[C@H](O)CO)c(=O)[nH]1
MID: >400 µg/mL

Cc1cn(C[C@H](O)CO)c(=O)[nH]c1=O
MID: >400 µg/mL

Cc1cn(C[C@@H](O)CO)c(=O)[nH]c1=O
MID: >400 µg/mL

Cc1c[nH]c(=O)n(C[C@H](O)CO)c1=O
MID: >400 µg/mL

NCCn1cnc2c(N)ncnc21
MID: >400 µg/mL

CC(=O)OC[C@H](Cn1cnc2c(N)ncnc21)OC(C)=O
MID: >400 µg/mL

Nc1ncnc2c1ncn2CC[C@H](O)CO
MID: 200 µg/mL

Nc1ncnc2c1ncn2C[C@@H](O)[C@@H](O)CO
MID: >400 µg/mL

Nc1ncnc2c1ncn2C[C@H](O)[C@H](O)CO
MID: 200 µg/mL

Nc1ncnc2c1ncn2C[C@@H](O)[C@H](O)CO
MID: >400 µg/mL

Nc1ncnc2c1ncn2C[C@H](O)[C@@H](O)CO
MID: >400 µg/mL

O=c1ccn(CC[C@H](O)CO)c(=O)[nH]1
MID: >400 µg/mL

O=c1ccn(C[C@@H](O)[C@H](O)CO)c(=O)[nH]1
MID: >400 µg/mL

Nc1ncnc2c1ncn2C(CO)CO
MID: >400 µg/mL

Nc1ncnc2c1ncn2CCCO
MID: 300 µg/mL

Nc1ncnc2c1ncn2CCO
MID: >400 µg/mL

Nc1ncnc2c1ncn2CC(O)CO (racemic)
MID: 40 µg/mL

Nc1nc(O)c2c(ncn2CC(O)CO)n1 (racemic)
MID: >400 µg/mL

Nc1ncnc2c1ncn2CCC(O)CO (racemic)
MID: 100 µg/mL

Nc1ncnc2c1ncn2CCC(O)CCO (racemic)
MID: >400 µg/mL

Nc1nc(N)c2ncn(CC(O)CO)c2n1 (racemic)
MID: >400 µg/mL

CSc1nc(N)c2ncn(CC(O)CO)c2n1 (racemic)
MID: 400 µg/mL

Nc1ncnc2c1nc(O)n2CC(O)CO (racemic)
MID: >400 µg/mL

Nc1ncnc2c1nc(S)n2CC(O)CO (racemic)
MID: >400 µg/mL

CNc1ncnc2c1ncn2CC(O)CO (racemic)
MID: >400 µg/mL

CN(C)c1ncnc2c1ncn2CC(O)CO (racemic)
MID: >400 µg/mL

OCC(O)Cn1cnc2c(S)ncnc21 (racemic)
MID: >400 µg/mL

Nc1nc2c(ncn2CC(O)CO)c(=O)[nH]1 (racemic)
MID: >400 µg/mL

Nc1c2ncn(CC(O)CO)c2nc[n+]1[O-] (racemic)
MID: >400 µg/mL

Nc1ccn(CC(O)CO)c(=O)n1 (racemic)
MID: >400 µg/mL

O=c1cnn(CC(O)CO)c(=O)[nH]1 (racemic)
MID: >400 µg/mL

CCC(=O)OCC(Cn1cnc2c(N)ncnc21)OC(=O)CC (racemic)
MID: >400 µg/mL

CCCCCCCCCCCCCCCC(=O)OCC(O)Cn1cnc2c(N)ncnc21 (racemic)
MID: 100 µg/mL

CC(C)(C)C(=O)OCC(O)Cn1cnc2c(N)ncnc21 (racemic)
MID: 300 µg/mL

CC(C)(C)C(=O)OCC(Cn1cnc2c(N)ncnc21)OC(=O)C(C)(C)C (racemic)
MID: 300 µg/mL

COC(CO)Cn1cnc2c(N)ncnc21 (racemic)
MID: >400 µg/mL

COCC(O)Cn1cnc2c(N)ncnc21 (racemic)
MID: >400 µg/mL

COCC(Cn1cnc2c(N)ncnc21)OC (racemic)
MID: >400 µg/mL

[N-]=[N+]=NCC(O)Cn1cnc2c(N)ncnc21 (racemic)
MID: >400 µg/mL

[N-]=[N+]=NCC(Cn1cnc2c(N)ncnc21)N=[N+]=[N-] (racemic)
MID: 150 µg/mL

Nc1ncnc2c1ncn2CC(N)CO (racemic)
MID: >400 µg/mL

NCC(O)Cn1cnc2c(N)ncnc21 (racemic)
MID: 400 µg/mL

NCC(N)Cn1cnc2c(N)ncnc21 (racemic)
MID: >400 µg/mL

Nc1ncnc2c1ncn2CC(O)C(O)CO (racemic)
MID: 400 µg/mL

O=c1ccn(CC(O)C(O)CO)c(=O)[nH]1 (racemic)
MID: >400 µg/mL

O=c1ccn(C[C@H](O)[C@H](O)CO)c(=O)[nH]1 (racemic)
MID: >400 µg/mL

O=c1ccn(CCC(O)CCO)c(=O)[nH]1 (racemic)
MID: >400 µg/mL

C[C@@H](O)[C@@H](O)Cn1cnc2c(N)ncnc21 (racemic)
MID: 150 µg/mL

CC(O)Cn1cnc2c(N)ncnc21 (racemic)
MID: >400 µg/mL

Nc1ncnc2c1nc(Br)n2CC(O)CO (racemic)
MID: >200 µg/mL

Nc1ncnc2c1ncn2C[C@H](O)CO [(S)-DHPA]
MID: 10 µg/mL

Nc1ccn([C@@H]2O[C@H](CO)[C@@H](O)[C@@H]2O)c(=O)n1 [CYTARABINE]
MID: 0.02 µg/mL

O=c1[nH]c(=O)n([C@H]2C[C@H](O)[C@@H](CO)O2)cc1I [IDOXURIDINE]
MID: 0.1 µg/mL

Nc1ncnc2c1ncn2[C@@H]1O[C@H](CO)[C@@H](O)[C@@H]1O [VIDARABINE]
MID: 0.3 µg/mL

— ChEMBL document CHEMBL3244391, “Antiviral activity of aliphatic nucleoside analogues: structure-function relationship” (1979)
